24 molecules from ChEMBL document CHEMBL2412974, “Dimeric and trimeric triazole based molecules as a new class of Hsp90 molecular chaperone inhibitors” (Eur J Med Chem, 2013) can be followed below.

Active and inactive are the calls of the source. The rule behind the calls is not given here.

Experiment [1] deals with T1, Heat shock protein HSP 90-beta (Homo sapiens, UniProt P08238). In words: Binding affinity to human Hsp90 by surface plasmon resonance analysis. In general terms: In SPR one partner is held on a chip, and binding of the other changes the refractive index at the surface.
In experiment [2] the target is T1, Heat shock protein HSP 90-beta. In words: Inhibition of human Hsp90 chaperone activity assessed as citrate synthase thermal-induced aggregation at 0.3 uM by fluorimetric analysis.
The target is the same in experiment [3]. In words: Inhibition of human Hsp90 ATPase activity assessed as inhibition of ATP hydrolysis after 60 mins by fluorimetric analysis.

T1 sequence (P08238 whole entry): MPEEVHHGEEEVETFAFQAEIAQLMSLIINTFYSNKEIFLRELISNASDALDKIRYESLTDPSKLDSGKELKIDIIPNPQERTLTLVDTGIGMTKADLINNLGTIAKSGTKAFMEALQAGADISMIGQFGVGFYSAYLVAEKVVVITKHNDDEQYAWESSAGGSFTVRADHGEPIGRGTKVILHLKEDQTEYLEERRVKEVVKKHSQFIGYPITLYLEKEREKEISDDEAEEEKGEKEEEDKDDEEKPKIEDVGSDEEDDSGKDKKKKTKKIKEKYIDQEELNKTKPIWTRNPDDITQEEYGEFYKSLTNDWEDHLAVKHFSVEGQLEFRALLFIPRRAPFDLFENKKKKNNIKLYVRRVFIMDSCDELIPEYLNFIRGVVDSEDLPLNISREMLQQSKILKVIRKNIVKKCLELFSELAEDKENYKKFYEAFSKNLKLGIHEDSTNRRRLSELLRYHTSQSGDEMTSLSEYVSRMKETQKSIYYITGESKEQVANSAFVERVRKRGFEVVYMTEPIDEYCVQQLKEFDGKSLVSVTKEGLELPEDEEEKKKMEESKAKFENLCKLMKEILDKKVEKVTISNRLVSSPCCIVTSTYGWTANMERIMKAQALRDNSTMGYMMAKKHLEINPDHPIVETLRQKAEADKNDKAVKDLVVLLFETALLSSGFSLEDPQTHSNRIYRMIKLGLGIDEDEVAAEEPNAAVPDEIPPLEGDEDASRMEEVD

As usually defined, the Kd is the free concentration of one partner at which half of the binding sites on the other are occupied at equilibrium, for simple one-to-one binding. With `O=C1c2ccccc2C(=O)c2cc(Cn3cc(CCCCc4cn(Cc5ccc6c(c5)C(=O)c5ccccc5C6=O)nn4)nn3)ccc21`, the equilibrium dissociation constant (Kd) result in experiment [1] is “Not Active”.
For the molecule `c1ccc2c(Cn3cc(CCCCc4cn(Cc5cccc6ccccc56)nn4)nn3)cccc2c1`, the Kd in experiment [1] (read-out: Kd) came out at 191 nM.
What is called IC50 is the point on the concentration scale where inhibition reaches its midpoint. Regarding `c1ccc2cc(Cn3cc(CCCCc4cn(Cc5ccc6ccccc6c5)nn4)nn3)ccc2c1`, the inhibition result in experiment [2] was “Active”. Further, in experiment [3], the IC50 stood at 52000 nM and the inhibition entry is “Dose-dependent effect”. For the same molecule, in experiment [1] (read-out: Kd), the Kd stood at 84 nM.
Consider `c1ccc2c(Cn3cc(-c4ccc(-c5cn(Cc6cccc7ccccc67)nn5)cc4)nn3)cccc2c1`, for which the Kd result in experiment [1] was “Not Active”.
`O=C1c2ccccc2C(=O)c2cc(Cn3cc(CN(Cc4cn(Cc5ccc6c(c5)C(=O)c5ccccc5C6=O)nn4)Cc4cn(Cc5ccc6c(c5)C(=O)c5ccccc5C6=O)nn4)nn3)ccc21`: in experiment [1] (read-out: Kd), the Kd came to 107 nM.
The same measure, in the same setting: then `c1ccc(-c2ccc(Cn3cc(COCc4cn(Cc5ccc(-c6ccccc6)cc5)nn4)nn3)cc2)cc1`, with 237 nM.
As for `c1ccc(-c2ccc(Cn3cc(-c4ccc(-c5cn(Cc6ccc(-c7ccccc7)cc6)nn5)cc4)nn3)cc2)cc1`, the Kd result in experiment [1] is reported as “Not Active”.
Regarding `O=C1c2ccccc2C(=O)N1CCCn1cc(CN(Cc2cn(CCCN3C(=O)c4ccccc4C3=O)nn2)Cc2cn(CCCN3C(=O)c4ccccc4C3=O)nn2)nn1`, the Kd in experiment [1] (read-out: Kd) turned out to be 89 nM.
Take `c1ccc2cc(Cn3cc(CN(Cc4cn(Cc5ccc6ccccc6c5)nn4)Cc4cn(Cc5ccc6ccccc6c5)nn4)nn3)ccc2c1`: the inhibition entry in experiment [2] is “Active”. For the same molecule, in experiment [3], the IC50 amounted to 16000 nM and the inhibition result is “Dose-dependent effect”. In experiment [1] (read-out: Kd), the dissociation constant (Kd) was determined as 55 nM.
Taken in the same sequence, the figures for `O=C1c2ccccc2C(=O)N1CCCn1cc(COCc2cn(CCCN3C(=O)c4ccccc4C3=O)nn2)nn1` were “Active”, 7000 nM, “Dose-dependent effect” and 3.5 nM.
Take `O=C(c1ccccc1)c1ccc(Cn2cc(CCCCc3cn(Cc4ccc(C(=O)c5ccccc5)cc4)nn3)nn2)cc1`: the equilibrium dissociation constant (Kd) result in experiment [1] is “Not Active”.
As for `O=C(c1ccccc1)c1ccc(Cn2cc(-c3ccc(-c4cn(Cc5ccc(C(=O)c6ccccc6)cc5)nn4)cc3)nn2)cc1`, the dissociation constant (Kd) result in experiment [1] is listed as “Not Active”.
Regarding `c1ccc2cc(Cn3cc(-c4ccc(-c5cn(Cc6ccc7ccccc7c6)nn5)cc4)nn3)ccc2c1`, the Kd result in experiment [1] is “Not Active”.
Still for that read-out and setting: then `c1ccc(-c2ccc(Cn3cc(CCCCc4cn(Cc5ccc(-c6ccccc6)cc5)nn4)nn3)cc2)cc1`, with “Not Active”; and `O=C1c2ccccc2C(=O)N1CCCn1cc(-c2ccc(-c3cn(CCCN4C(=O)c5ccccc5C4=O)nn3)cc2)nn1`, with “Not Active”.
Take `O=C(c1ccccc1)c1ccc(Cn2cc(COCc3cn(Cc4ccc(C(=O)c5ccccc5)cc4)nn3)nn2)cc1`: the inhibition entry in experiment [2] was “Active”. In experiment [3], the 50% inhibitory concentration (IC50) came to 7000 nM and the inhibition result was “Dose-dependent effect”. In experiment [1] (read-out: Kd), the Kd was determined as 3.6 nM.
Take `c1ccc2c(Cn3cc(CN(Cc4cn(Cc5cccc6ccccc56)nn4)Cc4cn(Cc5cccc6ccccc56)nn4)nn3)cccc2c1`: the Kd in experiment [1] (read-out: Kd) came out at 201 nM.
As for `O=C(c1ccccc1)c1ccc(Cn2cc(CN(Cc3cn(Cc4ccc(C(=O)c5ccccc5)cc4)nn3)Cc3cn(Cc4ccc(C(=O)c5ccccc5)cc4)nn3)nn2)cc1`, the Kd in experiment [1] (read-out: Kd) turned out to be 151 nM.
For the molecule `O=C1c2ccccc2C(=O)N1CCCn1cc(CCCCc2cn(CCCN3C(=O)c4ccccc4C3=O)nn2)nn1`, the dissociation constant Kd result in experiment [1] is given as “Not Active”.
On the same count and under the same terms, for `c1ccc2cc(Cn3cc(COCc4cn(Cc5ccc6ccccc6c5)nn4)nn3)ccc2c1` the value was “Not Active”; for `O=C1c2ccccc2C(=O)c2cc(Cn3cc(-c4ccc(-c5cn(Cc6ccc7c(c6)C(=O)c6ccccc6C7=O)nn5)cc4)nn3)ccc21`, “Not Active”.
As to `O=C1c2ccccc2C(=O)c2cc(Cn3cc(COCc4cn(Cc5ccc6c(c5)C(=O)c5ccccc5C6=O)nn4)nn3)ccc21`, the inhibition result in experiment [2] is “Active”. In addition, in experiment [3], the IC50 was determined as 7000 nM and the inhibition result is “Dose-dependent effect”. Moreover, the Kd in experiment [1] (read-out: Kd) worked out at 2.8 nM.
For the molecule `c1ccc2c(Cn3cc(COCc4cn(Cc5cccc6ccccc56)nn4)nn3)cccc2c1`, the dissociation constant Kd in experiment [1] (read-out: Kd) was 10.3 nM.
Still for that read-out and setting: then `c1ccc(-c2ccc(Cn3cc(CN(Cc4cn(Cc5ccc(-c6ccccc6)cc5)nn4)Cc4cn(Cc5ccc(-c6ccccc6)cc5)nn4)nn3)cc2)cc1`, with 72 nM.
